# Results reported in patent US10898504B2, “Substituted nucleoside analogues for use as PRMT5 inhibitors” (Janssen Pharmaceutica NV, priority 2016, dated 2021).
# Where “and” joins values, the source holds several entries; their conditions need not be identical. Equal values may be shown once.
# Experiments:
# PRMT5-MEP50 enzyme = biological target: T1, PRMT5-MEP50 enzyme (Homo sapiens, UniProt O14744); experiment: In vitro assay (Assay 1): PRMT5-MEP50 high throughput mass spectrometer assay, inhibition of SAH formation; assay type: biochemical; settings: individual measurements shown, read-out: pIC50 Assay 1 (converted)
# T1 construct: One virus expresses full length human PRMT5 with Flag-tag at N-terminus
# T1 sequence (O14744 whole entry): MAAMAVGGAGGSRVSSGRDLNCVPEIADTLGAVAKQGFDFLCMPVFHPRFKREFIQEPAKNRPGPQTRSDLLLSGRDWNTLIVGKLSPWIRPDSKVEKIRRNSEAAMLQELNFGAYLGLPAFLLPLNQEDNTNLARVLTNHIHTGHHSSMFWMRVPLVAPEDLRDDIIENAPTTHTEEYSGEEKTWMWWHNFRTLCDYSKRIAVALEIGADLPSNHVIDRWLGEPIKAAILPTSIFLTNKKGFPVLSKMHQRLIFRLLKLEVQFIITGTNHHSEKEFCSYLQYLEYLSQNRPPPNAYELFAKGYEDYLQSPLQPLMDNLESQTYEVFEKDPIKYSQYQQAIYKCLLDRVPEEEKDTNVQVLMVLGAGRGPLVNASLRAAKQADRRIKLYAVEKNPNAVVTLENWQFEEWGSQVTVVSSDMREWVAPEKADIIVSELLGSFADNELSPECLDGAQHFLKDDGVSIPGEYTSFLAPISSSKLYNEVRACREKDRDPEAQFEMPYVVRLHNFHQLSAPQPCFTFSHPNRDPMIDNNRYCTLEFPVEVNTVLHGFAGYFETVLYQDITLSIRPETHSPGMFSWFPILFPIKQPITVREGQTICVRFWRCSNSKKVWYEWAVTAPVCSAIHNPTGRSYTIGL
# T1 sequence (Q9BQA1 whole entry partner): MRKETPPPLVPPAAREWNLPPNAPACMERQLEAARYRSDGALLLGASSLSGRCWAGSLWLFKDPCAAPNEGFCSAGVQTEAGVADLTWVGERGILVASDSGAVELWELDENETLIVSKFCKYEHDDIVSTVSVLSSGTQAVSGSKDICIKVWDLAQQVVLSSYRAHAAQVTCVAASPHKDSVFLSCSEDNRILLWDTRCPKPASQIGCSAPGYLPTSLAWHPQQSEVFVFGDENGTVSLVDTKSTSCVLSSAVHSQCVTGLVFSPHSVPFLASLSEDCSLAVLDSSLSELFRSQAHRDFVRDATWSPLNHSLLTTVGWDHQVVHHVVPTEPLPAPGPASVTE
# From the text: EXPERIMENTAL PROCEDURES IN VITRO ASSAY (ASSAY 1)
# PRMT5-MEP50 enzyme was purchased from Charles River (Argenta). The enzyme complex was produced in insect cells (Sf9) infected simultaneously with two baculoviruses. One virus expresses full length human PRMT5 with Flag-tag at N-terminus, the second virus expresses full length MEP50 with His6-TEV cleavage at N-terminus. The protein was affinity purified using anti-Flag (M2) beads eluted with 3×FLAG peptide, followed by His-Select eluted with 0.5M imidazole. Eluted protein was then dialysed against tris-buffered saline (TBS) (pH 8.0) containing 20% glycerol and 3 mM dithiothreitol (DTT).
# Full-length untagged human recombinant histone H2A (residues 1-130, Genbank Accession #NM_021052, MW=14.1 kDa) expressed in E. coli was purchased from Reaction Biology Corporation, Cat #HMT-11-146. Reagents used for making reaction buffer or stopping reaction were purchased including Tris base (Sigma Cat #T-1503), NaCl (Sigma Cat #RGF-3270), MgCl2 (Sigma Cat #M0250), DTT (Invitrogen Cat #15508-013) and Formic Acid (Riedel deHaen, Cat #33015)
# High Throughput Mass Spectrometer Assay
# PRMT5 catalyzes the sequential methylations of the terminal nitrogen atoms on the guanidine groups of arginine residues within proteins using co-substrate S-adenosyl-L-methionine (AdoMet, SAM), forming mono-methyl (MMA), symmetric-dimethyl arginine (sDMA) and S-adenosyl-L-homocysteine (AdoHcy, SAH). The enzyme activity was determined by following the product SAH formation using high throughput mass spectrometry (Agilent Rapidfire 300 System coupled to a Sciex 4000 series QTrapm triple-quad MS/MS). The reaction buffer was 20 mM Tris-HC, pH 8.5, 50 mM NaCl, 5 mM MgCl2 and 1 mM DTT. The reaction activity was stopped using 1% formic acid (final concentration).
# The IC50 Studies were performed using eleven point dosing series made for each compound by serially diluted 1:2 in dimethyl sulfoxide (DMSO), with point 12 being a DMSO control. Compounds were first spotted to plates, and followed by addition of 2 μM SAM and 0.6 μM H2A (histone H2A) solution mixture. The same volume of enzyme solution was added to initiate the enzymatic reactions. The final concentrations of the reaction are at 1 μM SAM, 0.3 μM H2A and 10 nM enzyme. The reaction was incubated at 30° C. for 60 minutes (min) and then quenched by addition of formic acid to a final concentration of 1%. The inhibitions of SAH formation in the presence of compounds were calculated as a percentage of the control relative to the uninhibited reaction as a function of inhibitor concentration. The data were fit as follows: Y=Bottom+(Top−Bottom)/(1+10^((log IC50−X)*h))
# where IC50 is the inhibitor concentration (same unit as X) at 50% inhibition and h is the Hill slope. Y is percent of inhibition, X is log of compound concentration. Bottom and Top are the plateaus in same units as Y.
# A549 cells = experiment: PD assay (Assay 2): inhibition of nuclear symmetric Arginine dimethylation (SYM10 immunohistochemistry) in A549 cells; assay type: cell-based; settings: individual measurements shown; for IC50: Homo sapiens, A549, PD assay in A549 cells, read-out: pIC50 Assay 2 (converted); for pIC50 Assay 2: PD assay in A549 cells
# Experimental: EXPERIMENTAL PROCEDURE PD ASSAY (ASSAY 2)
# A549 cells (ATCC, Cat #CCL-185) were cultured in Dulbecco's Modified Eagle's Medium (DMEM) (Sigma, Cat #D5796), supplemented with 10% Fetal Calf Serum (FCS)(HyClone™, Cat #SV30160.03), 100 mM Sodium Pyruvate (Sigma, Cat #S8636), 200 mM L-Glutamine (Sigma, Cat #G7513) and 50 mg/mL Gentamycing (Gibco, Cat #15750-037).
# Reagents used for buffers were purchased: Dulbecco's phosphate buffered saline (DPBS) without Ca/Mg (Sigma, Cat #D8537), phosphate buffered saline (PBS) 10× (Roche, Cat #11 666 789 001), Formalin solution 10% (Sigma, HT50-1-128-4L), MeOH 100% (Sigma, Cat #32213-2.5L), Triton X-100 (Acros, Cat #215680010), Bovine Serum Albumin (BSA) (Sigma, Cat #A2153), Alexa fluor 488 goat anti-rabbit antibody (Life Technologies, Cat #A11034), HCS CellMask Deep Red Stain (Life Technologies, Cat #H32721), Hoechst Stain (Life Technologies, Cat #33258), Anti-dimethyl-Arginine, sym (SYM10) antibody (Millipore, 07-412).
# Immunohistochemistry Procedure
# Cells were plated at 400 cells/40 μL/well in 384 well black plates μclear bottom (Perkin Elmer) and overnight incubated at 37° C., 5% CO2. The IC50 Studies were performed using nine point dosing series ranging from 10 μM to […] for each compound. 80 nL of the respective dilution of the compounds was added using the Labcyte POD 810 (Labcyte) reaching a final DMSO concentration of 0.2% in cell culture. After an incubation period of 48 h at 37° C. and 5% CO2, cells were fixed in 10% formalin solution for 15 min at r.t. and 20 min in ice-cold MeOH, after which they were washed 3× in DPBS. Subsequently, the cells were blocked for 1 h in blocking buffer (PBS+1% BSA and 0.5% Triton X-100) and incubated overnight at 4° C. with the SYM10 antibody diluted 1/2000 in blocking buffer. The cells were washed 3× with washing buffer (PBS+0.1% Triton X-100) and incubated with the Alexa fluor 488 goat anti-rabbit antibody diluted 1/200 in blocking buffer for 1 h at r.t. Subsequently, they were washed 3× with washing buffer and incubated for 30 min at r.t. with PBS containing a 1/5000 dilution of Hoechst Stain and a 1/5000 dilution of the HCS CellMask Deep Red Stain. After a final wash with PBS, the plates were imaged using the 10×W lens of the Opera® system (Perkin Elmer Life Sciences) using following settings (values in nm):
# In the above equations, the following variable names are use: […]
# In the above equations, the following controls were used for normalization: […]
# Low control: minimum level of symmetrically dimethylated Arginines (cells treated with reference compound at 10 μM).
# High control: maximum level of symmetrically dimethylated Arginines (DMSO treated cells).
# IC50 and pIC50 (−log IC50) values were calculated using the appropriate software.
# pIC50 values (Co. No. means compound number; n.d. means not determined).
Compound,IC50 (PRMT5-MEP50 enzyme),IC50 (A549 cells) [µM],pIC50 Assay 2 (A549 cells)
"Nc1ncnc2c1ccn2[C@@H]1O[C@H](CN2CCCC3(CNCCO3)C2)[C@@H](O)[C@H]1O (single isomer, unassigned) [Compound 33]",0.24 µM,12,–
"Nc1ncnc2c1ccn2[C@@H]1O[C@H](CN2CCCC3(CNCCO3)C2)[C@@H](O)[C@H]1O (single isomer, unassigned) [Compound 34]",3.98 µM,–,<4.7
"Nc1ncnc2c1ccn2[C@@H]1O[C@H](CN2CCCC3(CCCCN3)C2)[C@@H](O)[C@H]1O (single isomer, unassigned) [Compound 35]",0.105 µM,~6.17,–
CN1CCC2(CCCN2C[C@H]2O[C@@H](n3cnc4c(N)ncnc43)[C@H](O)[C@@H]2O)CC1 [Compound 1],0.219 µM,7.24,–
CN1CC2(CCCN2C[C@H]2O[C@@H](n3cnc4c(N)ncnc43)[C@H](O)[C@@H]2O)C1 [Compound 2],0.776 µM,> 10,–
CN1CCC2(CCN2C[C@H]2O[C@@H](n3cnc4c(N)ncnc43)[C@H](O)[C@@H]2O)C1 (stereo partly shown) [Compound 3],1.66 µM,> 10,–
CN1CCC12CCN(C[C@H]1O[C@@H](n3cnc4c(N)ncnc43)[C@H](O)[C@@H]1O)C2 (stereo partly shown) [Compound 4],2.29 µM,> 10,–
CN1CC2(CCN(C[C@H]3O[C@@H](n4cnc5c(N)ncnc54)[C@H](O)[C@@H]3O)C2)C1 [Compound 5],8.13 µM,> 10,–
CN1CCC2(C1)CN(C[C@H]1O[C@@H](n3cnc4c(N)ncnc43)[C@H](O)[C@@H]1O)C2 [Compound 6],> 100 µM,–,–
CN1CCCC12CN(C[C@H]1O[C@@H](n3cnc4c(N)ncnc43)[C@H](O)[C@@H]1O)C2 [Compound 7],66.1 µM,> 10,–
CN1CC2(CCCN(C[C@H]3O[C@@H](n4cnc5c(N)ncnc54)[C@H](O)[C@@H]3O)C2)C1 [Compound 8],0.155 µM,1.51,–
CN1CCC2(CC1)CCN2C[C@H]1O[C@@H](n2cnc3c(N)ncnc32)[C@H](O)[C@@H]1O [Compound 9],0.776 µM,> 10,–
CN1CCCCC12CN(C[C@H]1O[C@@H](n3cnc4c(N)ncnc43)[C@H](O)[C@@H]1O)C2 [Compound 10],38.9 µM and 24.5 µM,> 10,–
CN1CC2(CCCCN2C[C@H]2O[C@@H](n3cnc4c(N)ncnc43)[C@H](O)[C@@H]2O)C1 [Compound 11],12.3 µM,> 10,–
CN1CCCC2(C1)CN(C[C@H]1O[C@@H](n3cnc4c(N)ncnc43)[C@H](O)[C@@H]1O)C2 [Compound 12],67.6 µM,> 10,–
CN1CCC2(CCCN2C[C@H]2O[C@@H](n3cnc4c(N)ncnc43)[C@H](O)[C@@H]2O)C1 (stereo partly shown) [Compound 13],0.955 µM,> 10,–
CN1CCC2(CCN(C[C@H]3O[C@@H](n4cnc5c(N)ncnc54)[C@H](O)[C@@H]3O)C2)C1 (stereo partly shown) [Compound 14],0.977 µM,> 10,–
CN1CCCC12CCN(C[C@H]1O[C@@H](n3cnc4c(N)ncnc43)[C@H](O)[C@@H]1O)C2 (stereo partly shown) [Compound 15],29.5 µM,> 10,–
CN1CCC12CN(C[C@H]1O[C@@H](n3cnc4c(N)ncnc43)[C@H](O)[C@@H]1O)C2 [Compound 17],> 100 µM,–,–

# Now from value to molecule:
IC50 (PRMT5-MEP50 enzyme),IC50 (A549 cells) [µM],pIC50 Assay 2 (A549 cells),Compound
1.91 µM,–,~5.13,"Nc1ncnc2c1ccn2[C@@H]1O[C@H](CN2CCCC3(CCCCN3)C2)[C@@H](O)[C@H]1O (single isomer, unassigned) [Compound 36]"
0.0676 µM,11.2,–,"Nc1ncnc2c1ccn2[C@@H]1O[C@H](CN2CCCC3(CCCN3)C2)[C@@H](O)[C@H]1O (single isomer, unassigned) [Compound 39]"
1.23 µM,> 10,–,"Nc1ncnc2c1ccn2[C@@H]1O[C@H](CN2CCOCC23CCNC3)[C@@H](O)[C@H]1O (single isomer, unassigned) [Compound 110]"
0.174 µM,–,~5.26,"Nc1ncnc2c1ccn2[C@@H]1O[C@H](CN2CCOCC23CCNC3)[C@@H](O)[C@H]1O (single isomer, unassigned) [Compound 111]"
0.0234 µM,~1.66,–,"Nc1ncnc2c1ccn2[C@@H]1O[C@H](CN2C(C(F)(F)F)CCC23CCNCC3)[C@@H](O)[C@H]1O (single isomer, unassigned) [Compound 115]"
0.151 µM,–,5.53,"Nc1ncnc2c1ccn2[C@@H]1O[C@H](CN2C(C(F)(F)F)CCC23CCNCC3)[C@@H](O)[C@H]1O (single isomer, unassigned) [Compound 116]"
0.0339 µM,0.501,–,"Nc1ncnc2c1ccn2[C@@H]1O[C@H](CN2CCCC23CCCNCC3)[C@@H](O)[C@H]1O (single isomer, unassigned) [Compound 117]"
0.0355 µM,–,6.29,"Nc1ncnc2c1ccn2[C@@H]1O[C@H](CN2CCCC23CCCNCC3)[C@@H](O)[C@H]1O (single isomer, unassigned) [Compound 118]"
0.155 µM,–,~5.97,"Nc1ncnc2c1ccn2[C@@H]1O[C@H](CN2CCCC23CCCNC3)[C@@H](O)[C@H]1O (single isomer, unassigned) [Compound 119]"
2.29 µM,–,<5,"Nc1ncnc2c1ccn2[C@@H]1O[C@H](CN2CCCC23CCCNC3)[C@@H](O)[C@H]1O (single isomer, unassigned) [Compound 120]"
–,–,7.06 and 7.08,CC(C)C(=O)O[C@@H]1[C@H](OC(=O)C(C)C)[C@@H](CN2CC(F)(F)CC23CCN(C)CC3)O[C@H]1n1ccc2c(N)ncnc21 [Compound 101]
> 10 µM,–,–,Nc1ncnc2c1ccn2[C@@H]1O[C@H](CN2CCCC2(CN2CCCC2)C(F)(F)F)[C@@H](O)[C@H]1O (stereo partly shown) [Compound 189]
